Results published in patent US20240115496A1, “A COMPOUND DRY POWDER INHALANT AND USE THEREOF” (TIANJIN UNIVERSITY OF TRADITIONAL CHINESE MEDICINE, priority 2021, published 2024).
Where a name gives a salt, the structure may show the parent alone.

Assays:
[1] = Particle size distribution test, laser particle size analyzer, dry dispersion; assay type: physicochemical
Experimental: The particle size distribution of DPI dry powder was measured by dry dispersion method using laser particle size analyzer, and Dv10, Dv50, Dv90, VMD (Volume median diameter) and SMD (Sauter mean diameter) were determined, respectively.

[2] = In vivo pharmacokinetics, plasma (UPLC-MS/MS); set-up: species or system rat; details: for half-life: read-out: HLz (biological half-life) (converted); for MRT last: read-out: MRTlast (mean retention time); for concentration at 2 min / concentration at 10 min / concentration at 15 min / concentration at 30 min / concentration at 60 min / concentration at 120 min / concentration at 240 min / concentration at 360 min / concentration at 4 min: read-out: Blood concentration of AH
Experimental: (§1) SPF-grade healthy SD male rats, body weight 180-220 g, purchased from SPF (Beijing) Biotechnology Co., Ltd (Certificate No. SCXK (Beijing) 2019-0010), were conventionally reared under (23±2)° C., humidity: (50±10)%. This study was conducted with the approval of the Animal Experiment Center of Tianjin University of Traditional Chinese Medicine.
(§2) 108 SPF-grade SD male rats were randomly divided into tail intravenous injection group and pulmonary administration group, with 9 time points of 2 min, 4 min, 10 min, 15 min, 30 min, 1 h, 2 h, 4 h and 6 h per group, 6 rats per time point per group. The rats were fasted for 12 h before the experiment, with water provided. The rats were weighed (to calculate the dose) and numbered, and both groups were intraperitoneally injected with 10% chloral hydrate at a dose of 2 mL/kg. Group 1 was administered BA/AH-DPI saline solution by tail intravenous injection at a dose of 9 mg/kg. Group 2 was administered 3 mg of BA/AH-DPI fine powder at the same dose by spray administration with a DP-4 tracheal insufflator (1.5 mL of air was pushed each time, 3-4 times consecutively). Blood was sampled from the abdominal aorta of the rats in both groups at the above time points after drug administration, and the rats were executed. The obtained whole blood was placed in a centrifuge tube with sodium heparin, centrifuged at 4000 r/min for 10 min, and the upper layer of plasma was separated and stored a refrigerator at −80° C. After blood collection, the thoracic cavity was quickly opened and the lungs of the rats were isolated. The small amount of floating blood on the surface of the lung tissue was washed with saline in an ice bath. The surface of the lung tissue was blotted with filter paper. The trachea was cut off, wrapped in tin foil and placed in a 10 mL centrifuge tube. The lung was weighed precisely, and stored in a refrigerator at −80° C.
(§3) 100 μL of the plasma sample or lung tissue supernatant was precisely absorbed, and 200 μL (100 ng/mL) of methanol solution containing the internal standard was added. The mixture was vortexed and mixed for 3 min, and centrifuged at 12000 r/min for 10 min to obtain the supernatant as the finished sample. The contents of BA and AH were determined by UPLC-MS/MS method.
(§4) Electrospray ion source (ESI source); scan mode: positive (ESI+) detection; detection mode: multi-reactive ion monitoring (MRM). Electrospray voltage: 4 kV; atomization gas: N2; spray gas flow rate (Gas1): 15 psi; ion source temperature: 300° C.
(§5) Meaning of pharmacokinetic parameters: HLz was the biological half-life, i.e., the time required for the amount or blood concentration of the drug in the body to decrease by half; Tmax was the time to peak, i.e., the time required to reach the peak concentration of the drug after administration. Cmax was the peak drug concentration, i.e., the highest blood concentration that occurred after administration of the drug. AUC was the area enclosed by the blood drug concentration curve against the time axis. Vz/F was the apparent volume of distribution, the ratio constant of the amount of drug in the body to the blood concentration when the drug reached dynamic equilibrium in the body. CL/F was the clearance, i.e., the number of apparent volume of distribution of the drug removed from the body per unit time. AUMC was the first order moment of the drug-time curve, i.e. the area under the curse of the product of time and blood concentration versus time. MRTlast was the mean retention time, i.e., the average of the residence time of drug molecules in the body.

[3] = In vivo pharmacokinetics, lung tissue homogenate (UPLC-MS/MS); set-up: species or system rat; details: for CL/F (clearance) / Cmax / Tmax / half-life / MRT last: AH in rat lung tissue; for concentration at 2 min / concentration at 4 min / concentration at 10 min / concentration at 15 min / concentration at 30 min / concentration at 60 min / concentration at 120 min / concentration at 240 min / concentration at 360 min / Cmax / Tmax / half-life / MRT last: male; for concentration at 2 min / concentration at 4 min / concentration at 10 min / concentration at 15 min / concentration at 30 min / concentration at 60 min / concentration at 120 min / concentration at 240 min / concentration at 360 min: rat lung tissue homogenate, read-out: Drug concentration of AH in lung tissue; for Cmax / Tmax / half-life / MRT last: lung tissue (homogenate supernatant); for half-life: read-out: HLz (biological half-life) (converted); for MRT last: read-out: MRTlast (mean retention time)
Experimental: as §1, §2
The lung tissues were added to saline in a weight to volume ratio of 1:4 (g:mL). A homogenate was obtained by beating, dispersing and evenly grinding with a homogenizer under an ice water bath, and centrifuged at 6500 r/min for 20 min to obtain the supernatant of the lung tissue homogenate.
as §3, §4, §5

[4] = male, SD, inhaled or intranasal, AH in rat plasma, pulmonary administration group, BA/AH-DPI 9 mg/kg
[5] = male, SD, inhaled, rat plasma, pulmonary administration BA/AH-DPI 9 mg/kg
[6] = male, SD, AH in rat plasma, tail intravenous injection group, 9 mg/kg
[7] = male, SD, rat plasma, tail intravenous injection BA/AH-DPI saline solution 9 mg/kg
[8] = male, Sprague-Dawley (SD), rat plasma, tail intravenous injection BA/AH-DPI saline solution 9 mg/kg
[9] = Sprague-Dawley (SD), inhaled, pulmonary administration BA/AH-DPI 9 mg/kg
[10] = Sprague-Dawley (SD), inhaled or intranasal, pulmonary administration group, BA/AH-DPI 9 mg/kg
[11] = Sprague-Dawley (SD), tail intravenous injection group, 9 mg/kg
[12] = Sprague-Dawley (SD), tail intravenous injection BA/AH-DPI saline solution 9 mg/kg

D10 [1]: 0.77 μm | D50 [1]: 3.07 μm | D90 [1]: 8.43 μm | SMD (Sauter mean diameter) [1]: 1.79 μm | VMD (Volume median diameter) [1]: 3.93 μm | <3 μm ([1]; fraction of particles): 49.10% | <5 μm ([1]; fraction of particles): 70.30% | CL/F (clearance) ([2]; AH in rat plasma, tail intravenous injection group, 9 mg/kg): 169.3805 ± 53.272 mL/min/kg | Cmax [2, 4]: 1770 ± 382 ng/mL | CL/F ([2]; male, SD, inhaled or intranasal, AH in rat plasma, pulmonary administration group, BA/AH-DPI 9 mg/kg, read-out: CL/F (clearance) (converted)): 237 mL/min/kg | half-life [2, 4]: 109 ± 39.6 min | MRT last [2, 4]: 49.8 ± 6 min | Vd/F ([2]; male, SD, inhaled or intranasal, AH in rat plasma, pulmonary administration group, BA/AH-DPI 9 mg/kg, read-out: Vz/F (apparent volume of distribution)): 37.2 ± 15.6 L/kg | bioavailability ([2]; male, SD, inhaled, rat plasma, pulmonary administration of BA/AH-DPI vs tail intravenous injection, 9 mg/kg, read-out: Absolute bioavailability): 53.5% | concentration at 2 min [2, 5]: 763 ± 101 ng/mL | concentration at 10 min [2, 5]: 1130 ± 170 ng/mL | concentration at 15 min [2, 5]: 464 ± 191 ng/mL | concentration at 30 min [2, 5]: 280 ± 75.8 ng/mL | concentration at 60 min [2, 5]: 124 ± 35.3 ng/mL | concentration at 120 min [2, 5]: 40.2 ± 21.1 ng/mL | concentration at 240 min [2, 5]: 21 ± 6.64 ng/mL | concentration at 360 min [2, 5]: 8.57 ± 0.38 ng/mL | Cmax [2, 6]: 3300 ± 1440 ng/mL | Tmax [2, 6]: 1.98 min | half-life [2, 6]: 146 ± 53.4 min | MRT last [2, 6]: 49.2 ± 10.2 min | concentration at 10 min [2, 7]: 395 ± 142 ng/mL | concentration at 15 min [2, 7]: 306 ± 140 ng/mL | concentration at 30 min [2, 7]: 252 ± 116 ng/mL | concentration at 60 min [2, 7]: 148 ± 58.7 ng/mL | concentration at 120 min [2, 7]: 49.4 ± 23 ng/mL | concentration at 240 min [2, 7]: 33.9 ± 12.2 ng/mL | concentration at 360 min [2, 7]: 18.9 ± 6.61 ng/mL | Tmax ([2]; male, Sprague-Dawley (SD), inhaled or intranasal, AH in rat plasma, pulmonary administration group, BA/AH-DPI 9 mg/kg): 4.02 min | concentration at 4 min ([2]; male, Sprague-Dawley (SD), inhaled, rat plasma, pulmonary administration BA/AH-DPI 9 mg/kg): 1770 ± 382 ng/mL | concentration at 2 min [2, 8]: 3300 ± 1690 ng/mL | concentration at 4 min [2, 8]: 598 ± 233 ng/mL | Time of maximum blood concentration in plasma ([2]; rat, pulmonary administration of BA/AH-DPI 9 mg/kg): 4 min | CL/F (clearance) ([3]; pulmonary administration group, BA/AH-DPI 9 mg/kg): 876.24 ± 146.55 g/h/kg | CL/F (clearance) ([3]; tail intravenous injection group, 9 mg/kg): 1454.72 ± 257.24 g/h/kg | concentration at 2 min ([3]; SD, tail intravenous injection BA/AH-DPI saline solution 9 mg/kg): 3230 ± 973 ng/mL | concentration at 2 min [3, 9]: 7610 ± 1750 ng/mL | concentration at 4 min [3, 9]: 5150 ± 879 ng/mL | concentration at 10 min [3, 9]: 2450 ± 384 ng/mL | concentration at 15 min [3, 9]: 1320 ± 524 ng/mL | concentration at 30 min [3, 9]: 798 ± 289 ng/mL | concentration at 60 min [3, 9]: 503 ± 200 ng/mL | concentration at 120 min [3, 9]: 256 ± 139 ng/mL | concentration at 240 min [3, 9]: 153 ± 60 ng/mL | concentration at 360 min [3, 9]: 66.2 ± 38.2 ng/mL | Cmax [3, 10]: 30400 ± 6970 ng/g | Tmax [3, 10]: 2.34 ± 0.78 min | half-life [3, 10]: 91.8 ± 26.4 min | MRT last [3, 10]: 72.6 ± 12 min | Cmax [3, 11]: 12900 ± 3890 ng/g | Tmax [3, 11]: 1.98 min | half-life [3, 11]: 72.6 ± 11.4 min | MRT last [3, 11]: 60.6 ± 7.2 min | concentration at 4 min [3, 12]: 1780 ± 454 ng/mL | concentration at 10 min [3, 12]: 1230 ± 183 ng/mL | concentration at 15 min [3, 12]: 1030 ± 210 ng/mL | concentration at 30 min [3, 12]: 780 ± 243 ng/mL | concentration at 60 min [3, 12]: 352 ± 83.1 ng/mL | concentration at 120 min [3, 12]: 135 ± 58.9 ng/mL | concentration at 240 min [3, 12]: 68.4 ± 24.5 ng/mL | concentration at 360 min [3, 12]: 23.4 ± 10.5 ng/mL
SMILES: Nc1c(Br)cc(Br)cc1CNC1CCC(O)CC1 (stereo not drawn) [AH, ambroxol hydrochloride]
